Measured values as given in PMC6222451, “Novel Potent Hypoglycemic Compounds from Euonymus laxiflorus Champ. and Their Effect on Reducing Plasma Glucose in an ICR Mouse Model” (Molecules : A Journal of Synthetic Chemistry and Natural …, 2018).
Where two headings read alike, the source gives them in different places.

Assays:
ICR mice = assay: Starch tolerance test: effect on reducing plasma glucose in ICR mice; type: in vivo, mouse; conditions: oral
Text: Animals: seven week-old male ICR (Institute of Cancer Research) mice were purchased from The National Laboratory Animal Center (No. 128, Sec. 2, Academia Rd., Nangang Dist., Taipei City 11529, Taiwan) and tested in accordance with the approval and guidelines of the Institutional Animal Care and Use Committee of the National Research Institute of Chinese Medicine, Ministry of Health and Welfare (IACUC No. 104-706-1, 29 December 2014). […] Distilled water was used to prepare the condensed tannins and acarbose solutions.
Assay: The effect of condensed tannin-ELCTB-3.1.1 on the reduction of plasma glucose in mice was performed according to the experimental animal protocol described by Nguyen et al. (2017) with the use of starch solution (3 g/kg bw) instead of sucrose solution administered to ICR mice.

[1] = biological target: T1, Saccharomyces cerevisiae (yeast) α-glucosidase (Saccharomyces cerevisiae, UniProt P53341); assay: α-Glucosidase inhibitory activity determination (pNPG substrate); type: biochemical; conditions: for inhibition at 7.81 µg/mL: read-out: Maximum Inhibition (%), recorded at 7.81 μg/mL
T1 construct: purchased Sigma Chemical Co., St. Louis City, MO, USA
Experimental: The α-glucosidase inhibitory activity was closely detected following the method described in detail by Nguyen et al. (2018). The mixture of 50 μL α-glucosidase, 50 μL sample solutions, 100 μL buffer was pre-incubated at 37 °C for 20 min; the reaction then started when 50 μL of p-nitrophenyl glucopyranoside (10 mmol/L) was added to the mixture. After incubation at the same temperature for 30 min, the reaction was stopped by adding 100 μL Na2CO3 solution (1 mol/L) to the reaction mixture; the absorbance of this final mixture was then measured at 410 nm (A). The control group also underwent the same described method with the use of 50 μL buffer instead of 50 μL sample solutions; the absorbance was recorded at 410 nm (B). The aGI activity (%) was calculated using the following equation: aGI (%) = (A − B)/ A × 100.
The inhibition was also expressed as IC50 value determined as per the previous study. The enzyme and the samples were prepared in 0.1 mol/L potassium phosphate buffer (pH 7). […]

[2] = read-out: Maximum Inhibition (%), recorded at 250 μg/mL
[3] = read-out: α-glucosidase inhibition, aGI (%), primary test of 26 isolated compounds at 250 µg/mL (Figure 2)
[4] = IC50, isolated compounds (Table 3)
[5] = isolated compounds (Table 3), read-out: IC50 (converted)

T1 sequence (P53341 whole entry): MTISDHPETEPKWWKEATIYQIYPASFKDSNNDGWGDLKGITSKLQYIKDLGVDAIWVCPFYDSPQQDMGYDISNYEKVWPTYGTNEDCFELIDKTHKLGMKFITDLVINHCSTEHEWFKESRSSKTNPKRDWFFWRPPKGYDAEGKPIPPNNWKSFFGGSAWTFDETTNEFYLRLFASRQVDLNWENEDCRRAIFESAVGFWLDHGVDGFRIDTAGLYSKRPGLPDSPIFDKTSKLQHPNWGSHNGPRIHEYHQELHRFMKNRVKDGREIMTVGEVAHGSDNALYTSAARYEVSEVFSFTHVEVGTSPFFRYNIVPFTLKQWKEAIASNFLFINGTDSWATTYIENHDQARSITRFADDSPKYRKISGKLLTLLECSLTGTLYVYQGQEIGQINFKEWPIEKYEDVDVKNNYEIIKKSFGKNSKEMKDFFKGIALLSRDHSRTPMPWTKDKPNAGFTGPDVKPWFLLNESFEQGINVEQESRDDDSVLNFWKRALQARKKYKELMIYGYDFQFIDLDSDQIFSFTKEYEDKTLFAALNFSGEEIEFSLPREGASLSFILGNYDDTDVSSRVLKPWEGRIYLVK

C[C@H]1O[C@H](O[C@H]2[C@H](O)[C@@H](O)[C@@H](O[C@H]3[C@H](O)[C@@H](O)C(O)O[C@@H]3CO)O[C@@H]2CO)[C@H](O)[C@@H](O)[C@@H]1N[C@H]1C=C(CO)[C@@H](O)[C@H](O)[C@H]1O (stereo partly shown) [Acarbose, reference compound]
mice with symptoms of diarrhea (ICR mice; acarbose 25 mg/kg bw): 20%
mice with symptoms of diarrhea (ICR mice; acarbose 50 mg/kg bw): 50%
inhibition at 2500 µg/mL ([1]; read-out: Maximum Inhibition (%), acarbose, recorded at 2500 μg/mL (Table 3)): 65 ± 2.7%
inhibition at 2500 µg/mL ([1]; read-out: α-Glucosidase Inhibitory Activity Inhibition (%), yeast α-glucosidase, acarbose tested at 2500 μg/mL (Table 2)): 64 ± 2.4%

CC1=CC(=O)OCC1O[C@@H]1O[C@H](CO)[C@@H](O)[C@H](O)[C@H]1O (stereo partly drawn) [Compound 1, Walterolactone A/B β-D-pyranoglucoside]
IC50 [1]: 3.12 µM
inhibition at 7.81 µg/mL [1]: 100 ± 5.8%

COc1cc(O[C@@H]2O[C@H](CO)[C@@H](O)[C@H](O)[C@H]2O)cc(OC)c1O [Compound 9, 1-β-D-glucopyranosyloxy-3,5-dimethoxy-4-hydroxybenzene]
inhibition at 250 µg/mL [1, 2]: ≤ 38%
inhibition at 250 µg/mL [1, 3]: 38 to 60%

Oc1cc(O)c2c(c1)O[C@@H](c1cc(O)c(O)c(O)c1)[C@H](O)C2 [Compound 10, (−)-Gallocatechin]
IC50 [1, 4]: 38.9 µM
inhibition at 250 µg/mL [1, 2]: 93 ± 2.9%

O=C(c1ccc(O)cc1)C(O)CO[C@@H]1O[C@H](CO)[C@@H](O)[C@H](O)[C@H]1O (stereo partly drawn) [Compound 11, Schweinfurthinol 9-O-β-D-pyranoglucoside]
IC50 [1]: 91.8 µM
inhibition at 250 µg/mL [1, 2]: 87 ± 4%
inhibition at 250 µg/mL [1, 3]: 90 to 100%

CC(C)=CC(=O)O[C@@H]1[C@H](O)[C@H](O)[C@@H](O)[C@H](O)[C@H]1O [Compound 12, 1-O-(3-methyl)-butenoyl-myo-inositol]
IC50 [1, 5]: 103 µM
inhibition at 250 µg/mL [1, 2]: 96 ± 6.9%

COc1cc(O)cc(OC)c1O[C@@H]1O[C@H](CO)[C@@H](O)[C@H](O)[C@H]1O [Compound 14, Leonuriside]
IC50 [1, 5]: 2.79 µM
inhibition at 7.81 µg/mL [1]: 99 ± 6.4%

Oc1cc(O)c2c(c1)O[C@H](c1ccc(O)c(O)c1)[C@@H](O)C2 [Compound 19, (+)-Catechin]
IC50 [1, 5]: 0.389 µM
inhibition at 0.977 µg/mL ([1]; read-out: Maximum Inhibition (%), recorded at 0.977 μg/mL): 100 ± 5.9%

COC(=O)c1cc(O)c(O)c(O)c1 [Compound 20, Methyl galloate]
IC50 [1, 4]: 597 µM
inhibition at 250 µg/mL [1, 2]: 58 ± 1.2%

Oc1cc(O)c2c(c1)O[C@@H](c1ccc(O)c(O)c1)[C@H](O)C2 [Compound 23, (−)-Catechin]
inhibition at 250 µg/mL [1, 2]: ≤ 38%
